Results: PMC10593844, “Structure-function analyses reveal key molecular determinants of HIV-1 CRF01_AE resistance to the entry inhibitor temsavir” (Nature Communications, 2023)
Where “and” joins values, the source holds several entries; their conditions need not be identical. Equal values may be shown once. Read-outs that look alike come from different tables or passages of the source.

Legend:
[1] = test system: HIV-1 pseudovirus bearing clade B YU2 Env LM+ST; assay: organism not typed; type: cell-based; settings: for Relative infectivity (%): YU2 LM+ST
[2] = test system: HIV-1 pseudovirus bearing EnvJR-FL S375N; assay: organism not typed; type: cell-based; settings: for Relative infectivity (%): JRFL S375N
[3] = test system: clade B YU2 Env LMSH on HEK293T cells; type: binding; settings: temsavir 10 µM, listed as TMR
[4] = test system: HIV-1 pseudovirus bearing clade B YU2 Env S375T; assay: organism not typed; type: cell-based; settings: for Relative infectivity (%): YU2 S375T
[5] = test system: CRF01_AE 92TH023 Env LMHT on HEK293T cells; type: binding; settings: 92TH023 LMHT; temsavir 10 µM; listed as TMR
[6] = test system: CRF01_AE 92TH023 Env LMHS on HEK293T cells; type: binding; settings: 92TH023 LMHS; temsavir 10 µM; listed as TMR
[7] = test system: HIV-1 pseudovirus bearing EnvJR-FL S375Y; assay: organism not typed; type: cell-based; settings: for Relative infectivity (%): JRFL S375Y
[8] = test system: HIV-1JR-FL Env S375T on HEK293T cells; type: binding; settings: JRFL S375T; temsavir 10 µM; listed as TMR
[9] = test system: HIV-1 pseudovirus bearing CRF01_AE CM244 Env LMHS; assay: organism not typed; type: cell-based; settings: for Relative infectivity (%): CM244 LMHS
[10] = test system: HIV-1 pseudovirus bearing clade B YU2 Env WT; assay: organism not typed; type: cell-based; settings: for Relative infectivity (%): YU2 WT
[11] = test system: CRF01_AE CM244 Env LM+HS on HEK293T cells; type: binding; settings: temsavir 10 µM, listed as TMR
[12] = test system: HIV-1 pseudovirus bearing CRF01_AE 92TH023 Env LM; assay: organism not typed; type: cell-based; settings: for Relative infectivity (%): 92TH023 LM
[13] = test system: CRF01_AE 92TH023 Env WT on HEK293T cells; type: binding; settings: 92TH023 WT; temsavir 10 µM; listed as TMR
[14] = test system: HIV-1 pseudovirus bearing clade B YU2 Env LM; assay: organism not typed; type: cell-based; settings: for Relative infectivity (%): YU2 LM
[15] = test system: HIV-1 pseudovirus bearing EnvJR-FL WT; assay: organism not typed; type: cell-based; settings: for Relative infectivity (%): JRFL WT
[16] = test system: CRF01_AE strains; design: method as in PMID 30604750; settings: CRF01_AE strains; cited from earlier work
[17] = test system: HIV-1JR-FL Env S375F on HEK293T cells; type: binding; settings: JRFL S375F; temsavir 10 µM; listed as TMR
[18] = test system: HIV-1 pseudovirus bearing clade B YU2 Env H105Q/I108V; type: cell-based
[19] = test system: HIV-1 pseudovirus bearing clade B YU2 Env S375H; assay: organism not typed; type: cell-based; settings: for Relative infectivity (%): YU2 S375H
[20] = test system: HIV-1 pseudovirus bearing CRF01_AE 92TH023 Env LMHS; assay: organism not typed; type: cell-based; settings: for Relative infectivity (%): 92TH023 LMHS
[21] = test system: HIV-1 pseudovirus bearing clade B YU2 Env Y61H; type: cell-based
[22] = test system: HIV-1JR-FL Env S375M on HEK293T cells; type: binding; settings: JRFL S375M; temsavir 10 µM; listed as TMR
[23] = test system: clade B YU2 Env LMST on HEK293T cells; type: binding; settings: temsavir 10 µM, listed as TMR
[24] = test system: clade B YU2 Env LM on HEK293T cells; type: binding; settings: temsavir 10 µM, listed as TMR

COc1cnc(-n2cnc(C)n2)c2[nH]cc(C(=O)C(=O)N3CCN(C(=O)c4ccccc4)CC3)c12 [Temsavir, temsavir]
IC50 ([1]; Cf2Th-CD4/CCR5): 32.1 nM
Relative infectivity (%) ([1]; Temsavir 1 nM): 95.2565% and 91.9655% and 79.6279%
Relative infectivity (%) ([1]; Temsavir 5 nM): 83.0048% and 82.0339% and 77.855%
Relative infectivity (%) ([1]; Temsavir 10 nM): 75.1553% and 73.7876% and 56.2664%
Relative infectivity (%) ([1]; Temsavir 50 nM): 36.2326% and 38.0343% and 31.1158%
Relative infectivity (%) ([1]; Temsavir 100 nM): 20.7287% and 13.4951% and 13.1747%
IC50 ([2]; Cf2Th-CD4/CCR5): 1.22 nM
Relative infectivity (%) ([2]; Temsavir 0.1 nM): 85.6384% and 86.7177% and 89.7623%
Relative infectivity (%) ([2]; Temsavir 0.5 nM): 73.4943% and 55.2266% and 75.8961%
Relative infectivity (%) ([2]; Temsavir 25 nM): 4.928% and 3.547% and 2.352% and 8.953%
Relative infectivity (%) ([2]; Temsavir 100 nM): 2.171% and 1.397% and 0.7541% and 3.487%
sCD4 binding (+TMR) - Fold over DMSO [3]: 1.199 and 1.141 and 1.081
IC50 ([4]; Cf2Th-CD4/CCR5): 0.73 nM
Relative infectivity (%) ([4]; Temsavir 1 nM): 32.779% and 22.5844% and 35.0676%
Relative infectivity (%) ([4]; Temsavir 5 nM): 2.479% and 1.401% and 1.77%
Relative infectivity (%) ([4]; Temsavir 10 nM): 0.4727% and 0.2789% and 0.1619%
Relative infectivity (%) ([4]; Temsavir 50 nM): 0.1346% and 0.1101% and 0.1511%
Relative infectivity (%) ([4]; Temsavir 100 nM): 0.1098% and 0.1253% and 0.1727%
sCD4 binding (+TMR) - Fold over DMSO [5]: 0.7044 and 0.6853 and 0.7442
sCD4 binding (+TMR) - Fold over DMSO [6]: 0.3873 and 0.484 and 0.5948
IC50 ([7]; Cf2Th-CD4/CCR5): > 100 nM
Relative infectivity (%) ([7]; Temsavir 0.1 nM): 95.0549% and 100.21% and 92.5783%
Relative infectivity (%) ([7]; Temsavir 0.5 nM): 93.6966% and 92.3523% and 97.9897%
Relative infectivity (%) ([7]; Temsavir 1 nM): 103.494% and 95.9187% and 99.1671%
Relative infectivity (%) ([7]; Temsavir 5 nM): 82.1418% and 84.655% and 82.6307%
sCD4 binding (+TMR) - Fold over DMSO [8]: 0.1797 and 0.1688 and 0.2064
Relative infectivity (%) ([9]; Temsavir 5 nM): 5.229% and 3.403% and 2.611%
Relative infectivity (%) ([9]; Temsavir 10 nM): 1.16% and 4.177% and 2.605%
Relative infectivity (%) ([9]; Temsavir 50 nM): 0.3118% and 0.2016% and 0.39%
IC50 ([9]; Cf2Th-CD4/CCR5): 0.7 nM
IC50 ([10]; Cf2Th-CD4/CCR5): 0.68 nM
Relative infectivity (%) ([10]; Temsavir 1 nM, Fig 2f): 27.4498% and 23.3742% and 28.1647%
Relative infectivity (%) ([10]; Temsavir 2 nM, Fig S1): 66.79% and 41.21% and 35.57%
Relative infectivity (%) ([10]; Temsavir 5 nM, Fig 2f): 1.267% and 2.642% and 1.583%
Relative infectivity (%) ([10]; Temsavir 5 nM, Fig S1): 6.29% and 2.61% and 2.85%
Relative infectivity (%) ([10]; Temsavir 10 nM, Fig 2f): 0.2419% and 0.2962% and 0.3923%
Relative infectivity (%) ([10]; Temsavir 10 nM, Fig S1): 2.59% and 2.79% and 2.69%
Relative infectivity (%) ([10]; Temsavir 50 nM, Fig 2f): 0.2461% and 0.2675% and 0.3334%
Relative infectivity (%) ([10]; Temsavir 50 nM, Fig S1): 2.66% and 2.72% and 2.93%
Relative infectivity (%) ([10]; Temsavir 100 nM, Fig 2f): 0.2542% and 0.2474% and 0.3435%
Relative infectivity (%) ([10]; Temsavir 100 nM, Fig S1): 2.55% and 3.03% and 2.93%
sCD4 binding (+TMR) - Fold over DMSO [11]: 0.6661 and 0.4581 and 0.6625
Relative infectivity (%) ([12]; Temsavir 1 nM): 82.8885% and 105.829% and 81.5038%
Relative infectivity (%) ([12]; Temsavir 5 nM): 63.4532% and 71.1451% and 85.9246%
Relative infectivity (%) ([12]; Temsavir 10 nM): 66.9458% and 79.651% and 87.1271%
Relative infectivity (%) ([12]; Temsavir 50 nM): 76.0092% and 99.9867% and 85.6288%
IC50 ([12]; Cf2Th-CD4/CCR5): > 50 nM
sCD4 binding (+TMR) - Fold over DMSO [13]: 0.9655 and 0.9282 and 0.9905
IC50 ([14]; Cf2Th-CD4/CCR5): 9.17 nM
Relative infectivity (%) ([14]; Temsavir 1 nM, Fig 2f): 76.4591% and 76.4018% and 119.182%
Relative infectivity (%) ([14]; Temsavir 2 nM, Fig S1): 74.57% and 102.72% and 96.57%
Relative infectivity (%) ([14]; Temsavir 5 nM, Fig 2f): 65.3412% and 84.0034% and 74.4376%
Relative infectivity (%) ([14]; Temsavir 10 nM, Fig 2f): 41.1017% and 43.3512% and 50.8185%
Relative infectivity (%) ([14]; Temsavir 10 nM, Fig S1): 72.47% and 80.59% and 43.3%
Relative infectivity (%) ([14]; Temsavir 50 nM, Fig 2f): 13.0704% and 12.6708% and 13.2107%
Relative infectivity (%) ([14]; Temsavir 50 nM, Fig S1): 31.31% and 45.33% and 30.59%
Relative infectivity (%) ([14]; Temsavir 100 nM, Fig 2f): 5.153% and 3.308% and 7.353%
Relative infectivity (%) ([14]; Temsavir 100 nM, Fig S1): 8.15% and 12.22% and 6.99%
IC50 ([15]; Cf2Th-CD4/CCR5): 0.36 nM
Relative infectivity (%) ([15]; Temsavir 0.1 nM): 88.4413% and 81.9041% and 67.8312%
Relative infectivity (%) ([15]; Temsavir 5 nM): 0.09027% and 0.782% and 0.1663%
Relative infectivity (%) ([15]; Temsavir 25 nM): 0.07266% and 0.1285% and 0.09925% and 0.3863%
Relative infectivity (%) ([15]; Temsavir 100 nM): 0.1307% and 0.3086% and 0.1992% and 0.5674%
IC50 [16]: > 5800 nM
sCD4 binding (+TMR) - Fold over DMSO [17]: 0.9879 and 0.8506 and 0.9038
Relative infectivity (%) ([18]; Temsavir 5 nM): 1.06% and 2.62% and 1.23%
Relative infectivity (%) ([18]; Temsavir 10 nM): 1.04% and 2.29% and 1.51%
Relative infectivity (%) ([18]; Temsavir 50 nM): 0.98% and 2.22% and 1.35%
Relative infectivity (%) ([18]; Temsavir 100 nM): 1.01% and 5.2% and 2.05%
IC50 ([19]; Cf2Th-CD4/CCR5): 22.9 nM
Relative infectivity (%) ([19]; Temsavir 1 nM): 63.2919% and 87.0597% and 84.5852%
Relative infectivity (%) ([19]; Temsavir 5 nM): 57.7086% and 71.798% and 64.2482%
Relative infectivity (%) ([19]; Temsavir 10 nM): 66.6494% and 65.3275% and 50.1024%
Relative infectivity (%) ([19]; Temsavir 50 nM): 26.1516% and 30.7973% and 25.917%
Relative infectivity (%) ([19]; Temsavir 100 nM): 13.7111% and 12.275% and 13.4865%
Relative infectivity (%) ([20]; Temsavir 1 nM): 49.3528% and 37.816% and 43.3804%
Relative infectivity (%) ([20]; Temsavir 5 nM): 29.4428% and 33.6115% and 29.1035%
Relative infectivity (%) ([20]; Temsavir 10 nM): 21.0612% and 17.7261% and 12.1457%
Relative infectivity (%) ([20]; Temsavir 50 nM): 7.315% and 6.366% and 6.4059%
IC50 ([20]; Cf2Th-CD4/CCR5): 0.89 nM
Relative infectivity (%) ([21]; Temsavir 5 nM): 2.81% and 1.74% and 3.98%
Relative infectivity (%) ([21]; Temsavir 10 nM): 1.05% and 1.23% and 1.34%
Relative infectivity (%) ([21]; Temsavir 50 nM): 1.04% and 1.28% and 3.8%
Relative infectivity (%) ([21]; Temsavir 100 nM): 0.97% and 2.23% and 1.32%
sCD4 binding (+TMR) - Fold over DMSO [22]: 0.2258 and 0.2038 and 0.2793
sCD4 binding (+TMR) - Fold over DMSO [23]: 0.9452 and 1.1963 and 0.9128
sCD4 binding (+TMR) - Fold over DMSO [24]: 0.8112 and 0.8641 and 1.018
